This assay has as its target T1, human ALK5 (kinase domain, ALK5 T204D) (Homo sapiens, UniProt P36897, T204D).
T1 construct: The kinase domain of human ALK5 (amino acids 200-503); made in house; host or cells: insect cells (baculovirus)
T1 sequence (P36897 200-503 T204D): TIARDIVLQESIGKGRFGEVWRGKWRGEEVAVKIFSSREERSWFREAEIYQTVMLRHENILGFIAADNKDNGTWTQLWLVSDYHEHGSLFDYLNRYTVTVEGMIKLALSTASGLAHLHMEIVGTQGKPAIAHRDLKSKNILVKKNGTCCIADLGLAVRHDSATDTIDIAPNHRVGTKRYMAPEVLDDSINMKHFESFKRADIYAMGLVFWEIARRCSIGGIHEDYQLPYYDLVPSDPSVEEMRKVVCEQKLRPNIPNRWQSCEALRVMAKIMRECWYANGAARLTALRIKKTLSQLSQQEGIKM
As to the kind of experiment: ALK5 kinase assay ([33P] phosphate incorporation into casein). The format is biochemical. Conditions: casein substrate, 1 μM unlabelled ATP. On the procedure: The kinase activity of ALK5 is assessed by measuring radiolabelled phosphate [33P] incorporation in to the generic substrate, casein. The kinase domain of human ALK5 (amino acids 200-503) is fused to an N-terminal histidine tag. The kinase activity of ALK5 is rendered constitutive via point mutation at amino acid 204 (threonine to aspartate modification, ALK5 T204D) and the kinase construct is engineered to be expressed from a baculovirus expression construct in insect cells. The purified, recombinantly-expressed histidine-tagged ALK5 T204D protein is dissolved at 5.4 mg/ml in 50 mM Tris-HCl pH 8.0, 150 mM NaCl, 5 mM DTT. ALK5 T204D is dissolved to 2.5 μg/ml in assay buffer (Assay buffer: 20 mM Tris-HCl pH 7.4, 10 mM MgCl2, 2 mM MnCl2) on the day of use.
Test compounds and reference compounds are dissolved in assay buffer without DTT containing 5% (v/v) DMSO. Stock solutions of test and reference compounds are diluted in assay buffer with DTT (1.25 mM) containing 4.5% (v/v) DMSO. 10 μl of test or reference compound are added to the appropriate wells of 96 well U-bottomed plate. Total enzyme activity is determined by measuring ALK5 T204D activity in the absence of ALK5 kinase inhibitor reference compounds. Non-specific binding (NSB) is determined by measuring the activity of ALK5 T204D in the presence of ALK5 kinase inhibitor reference compounds. 10 μl of dephosphorylated casein stock solution (dephosphorylated casein is dissolved in ddH2O at 20 mg/ml) is added per well (200 μg/well final assay concentration). 20 μl of ALK5 T204D (2.5 μg/ml solution) is added per well (50 ng/well final assay concentration). The plates are left to incubate at room temperature for 10 minutes.
10 μl of ATP mix is added to the well to initiate the reaction (0.66 nM [^33P]ATP/1 μM unlabelled ATP/well final assay concentration). The ATP mix is prepared as follows, unlabelled ATP (3 mM) is dissolved in ddH2O and pH adjusted to 7.4. The stock concentration of [^33P]ATP is 10 μCi/μl. The appropriate volume of [^33P]ATP is added to unlabelled ATP solution such that the final assay concentration per well is 0.1 μCi. Following addition of the ATP mix, the plates are incubated at room temperature for 50 minutes. The kinase reaction is terminated by the addition of 50 μL Stop Buffer (20 mM Tris-HCl pH 7.4, 10 mM EDTA).
75 μl/well from the reaction plate is transferred to a Multiscreen-IP plate (MultiScreen-IP plates are prepared by added 50 μL of 70% (v/v) ethanol per well and incubated for 5 minutes at room temperature. The ethanol is removed by aspiration via a MultiScreen HTS Vaccum Manifold unit (Millipore, Cat no: MSVMHT500). The plates are washed twice by adding 200 μl/well ddH2O). The MultiScreen-IP plate is incubated at room temperature for 30 minutes to allowing binding of casein to the plate. The MultiScreen-IP plates are washed three times by adding 200 μl/well 100 mM phosphoric acid solution and the gasket is carefully removed from the back of the MultiScreen-IP plate and the plate dried in the oven for 30 minutes. The MultiScreen-IP plate is backsealed, 50 μL of Microscint™20 is added, then the plates are topsealed and radiolabelled casein detected and quantified on a TopCount™ plate-reader using the ^33P scintillation protocol.
For the molecule `Cc1cccc(-c2nc(-c3cncc4c3CCCO4)c3cc[nH]c3n2)n1` [Example 126, 5-[2-(6-Methyl-pyridin-2-yl)-7H-pyrrolo[2,3-d]pyrimidin-4-yl]-3,4-dihydro-2H-pyrano[2,3-c]pyridine], the IC50 – broadly, the midpoint of a concentration-inhibition curve – is 229 nM.
The same measure for `COC(=O)CNCc1ccc(-c2cncc(-c3cc(-c4cccc(C)n4)nc4[nH]ccc34)c2)cc1` [Example 133, (4-{5-[6-(6-methyl-pyridin-2-yl)-1H-pyrrolo[2,3-b]pyridin-4-yl]-pyridin-3-yl}-benzylamino)-acetic acid methyl ester]: 7 nM; for `Cc1cccc(-c2nc(-c3cncc(-c4cccc(CN5CCN(C(C)C)CC5)c4)c3)c3cc[nH]c3n2)n1` [Example 34, 4-{5-[3-(4-Isopropyl-piperazin-1-ylmethyl)-phenyl]-pyridin-3-yl}-2-(6-methyl-pyridin-2-yl)-7H-pyrrolo[2,3-d]pyrimidine]: 51 nM.
Molecule `Cc1cccc(-c2nc(-c3cncc(-c4cccc(CN(C)CCO)c4)c3)c3cc[nH]c3n2)n1` [Example 144, 2-[Methyl-(3-{5-[2-(6-methyl-pyridin-2-yl)-7H-pyrrolo[2,3-d]pyrimidin-4-yl]-pyridin-3-yl}-benzyl)-amino]-ethanol] yielded an IC50 of 19 nM. Against the preceding molecule, the IC50 is about 2.7-fold lower.
On to `Cc1cccc(-c2nc(-c3cncc(-c4ccc(N5CCN(C(C)C)CC5)cc4)c3)c3cc[nH]c3n2)n1` [Example 15, 4-{5-[4-(4-Isopropyl-piperazin-1-yl)-phenyl]-pyridin-3-yl}-2-(6-methyl-pyridin-2-yl)-7H-pyrrolo[2,3-d]pyrimidine], for which the midpoint of inhibition, the IC50, lay at 160 nM.
For `Cc1cccc(-c2nc(-c3cncc(-c4cccc(CN(C)C)c4)c3)c3cc[nH]c3n2)n1` [Example 37, Dimethyl-(3-{5-[2-(6-methyl-pyridin-2-yl)-7H-pyrrolo[2,3-d]pyrimidin-4-yl]-pyridin-3-yl}-benzyl)-amine], the concentration for half-maximal inhibition (IC50) was 33 nM.
Regarding `Cc1cccc(-c2nc(-c3cncc(-c4ccc5c(c4)CCNC5)c3)c3cc[nH]c3n2)n1` [Example 115, 6-{5-[2-(6-Methyl-pyridin-2-yl)-7H-pyrrolo[2,3-d]pyrimidin-4-yl]-pyridin-3-yl}-1,2,3,4-tetrahydro-isoquinoline], it took 1150 nM to reach half-maximal inhibition (IC50).
In the case of `Cc1cccc(-c2nc(-c3cncc(-c4cnn(C)c4)c3)c3cc[nH]c3n2)n1` [Example 117, 4-[5-(1-Methyl-1H-pyrazol-4-yl)-pyridin-3-yl]-2-(6-methyl-pyridin-2-yl)-7H-pyrrolo[2,3-d]pyrimidine], the IC50 stood at 15 nM. Compared with the last molecule, the IC50 is about 77-fold lower.
`Cc1cccc(-c2nc(-c3cncc(C(=O)NCCCO)c3)c3cc[nH]c3n2)n1` [Example 26, N-(3-Hydroxy-propyl)-5-[2-(6-methyl-pyridin-2-yl)-7H-pyrrolo[2,3-d]pyrimidin-4-yl]-nicotinamide] yielded an IC50 of 465 nM.
For the molecule `Cc1cccc(-c2nc(-c3cncc(C(=O)NCCCN(C)C)c3)c3cc[nH]c3n2)n1` [Example 13, N-(3-Dimethylamino-propyl)-5-[2-(6-methyl-pyridin-2-yl)-7H-pyrrolo[2,3-d]pyrimidin-4-yl]-nicotinamide], the half-inhibitory concentration (IC50) was 177 nM.
Consider `CN1CCN(Cc2ccc(-c3cncc(-c4nc(-c5ccccn5)nc5[nH]ccc45)c3)cc2)CC1` [Example 43, 4-{5-[4-(4-Methyl-piperazin-1-ylmethyl)-phenyl]-pyridin-3-yl}-2-pyridin-2-yl-7H-pyrrolo[2,3-d]pyrimidine], for which 6 nM corresponded to half-maximal inhibition (IC50). This IC50 is about 30-fold lower than that of the molecule before.
Molecule `Cc1cccc(-c2cc(-c3cncc(-c4ccc(CO)cc4)c3)c3cc[nH]c3n2)n1` [Example 82, (4-{5-[6-(6-Methyl-pyridin-2-yl)-1H-pyrrolo[2,3-b]pyridin-4-yl]-pyridin-3-yl}-phenyl)-methanol] yielded an IC50 of 12 nM.
In turn, `Cc1cccc(-c2cc(-c3cncc(-c4ccc(C(C)(C)N(C)C)cc4)c3)c3cc[nH]c3n2)n1` [Example 160, Dimethyl-[1-methyl-1-(4-{5-[6-(6-methyl-pyridin-2-yl)-1H-pyrrolo[2,3-b]pyridin-4-yl]-pyridin-3-yl}-phenyl)-ethyl]-amine] had an IC50 of 5.9 nM.
With `Cc1cccc(-c2nc(-c3cncc(N4CCN(C)CC4)c3)c3cc[nH]c3n2)n1` [Example 41, 4-[5-(4-Methyl-piperazin-1-yl)-pyridin-3-yl]-2-(6-methyl-pyridin-2-yl)-7H-pyrrolo[2,3-d]pyrimidine], the IC50 was 130 nM.
The molecule `Cc1cccc(-c2cc(-c3cncc(-c4cccc(CN(C)C)c4)c3)c3cc[nH]c3n2)n1` [Example 66, Dimethyl-(3-{5-[6-(6-methyl-pyridin-2-yl)-1H-pyrrolo[2,3-b]pyridin-4-yl]-pyridin-3-yl}-benzyl)-amine] registered an IC50 of under 69 nM.
The molecule `Cc1cccc(-c2cc(-c3cncc(C#CCN4CCOCC4)c3)c3cc[nH]c3n2)n1` [Example 158, 6-(6-Methyl-pyridin-2-yl)-4-[5-(3-morpholin-4-yl-prop-1-ynyl)-pyridin-3-yl]-1H-pyrrolo[2,3-b]pyridine] returned an IC50 of 27 nM.
`Cc1cccc(-c2nc(-c3cncc(-c4ccc(CNCC(=O)O)cc4)c3)c3cc[nH]c3n2)n1` [Example 150, (4-{5-[2-(6-Methyl-pyridin-2-yl)-7H-pyrrolo[2,3-d]pyrimidin-4-yl]-pyridin-3-yl}-benzylamino)-acetic acid] showed a half-maximal inhibitory concentration (IC50) of 17 nM.
The result for `Cc1cccc(-c2nc(-c3cncc(NC(=O)CCN(C)C)c3)c3cc[nH]c3n2)n1` [Example 31, 3-Dimethylamino-N-{5-[2-(6-methyl-pyridin-2-yl)-7H-pyrrolo[2,3-d]pyrimidin-4-yl]-pyridin-3-yl}-propionamide] reads 85 nM.
The same measure for `Cc1cccc(-c2nc(-c3cncc(-c4cccc(CNCCO)c4)c3)c3cc[nH]c3n2)n1` [Example 147, 2-(3-{5-[2-(6-Methyl-pyridin-2-yl)-7H-pyrrolo[2,3-d]pyrimidin-4-yl]-pyridin-3-yl}-benzylamino)-ethanol]: 10 nM; for `Cc1cccc(-c2nc(-c3cncc(-c4ccc(CN(C)C)cc4)c3)c3cc[nH]c3n2)n1` [Example 38, Dimethyl-(4-{5-[2-(6-methyl-pyridin-2-yl)-7H-pyrrolo[2,3-d]pyrimidin-4-yl]-pyridin-3-yl}-benzyl)-amine]: 12 nM; for `Brc1cncc(-c2nc(-c3ccccn3)nc3[nH]ccc23)c1` [Example 44, 4-(5-Bromo-pyridin-3-yl)-2-pyridin-2-yl-7H-pyrrolo[2,3-d]pyrimidine]: 424 nM.
The same measure for `Cc1cccc(-c2nc(-c3cncc(-c4ccc(CN5CCN(C(C)C)CC5)cc4)c3)c3cc[nH]c3n2)n1` [Example 35, 4-{5-[4-(4-Isopropyl-piperazin-1-ylmethyl)-phenyl]-pyridin-3-yl}-2-(6-methyl-pyridin-2-yl)-7H-pyrrolo[2,3-d]pyrimidine]: 44 nM; for `Cc1cccc(-c2cc(-c3cncc(-c4ccc(CNCCCO)cc4)c3)c3cc[nH]c3n2)n1` [Example 139, 3-(4-{5-[6-(6-Methyl-pyridin-2-yl)-1H-pyrrolo[2,3-b]pyridin-4-yl]-pyridin-3-yl}-benzylamino)-propan-1-ol]: 9 nM.
In turn, `Cc1cccc(-c2cc(-c3cncc(-c4ccc(CC(=O)O)cc4)c3)c3cc[nH]c3n2)n1` [Example 157, (4-{5-[6-(6-Methyl-pyridin-2-yl)-1H-pyrrolo[2,3-b]pyridin-4-yl]-pyridin-3-yl}-phenyl)-acetic acid] showed an IC50 of 8 nM.

For the origin of these results see US8314112B2 (Novartis AG, priority 2008, dated 2012).
